The record followed here is US10966996B2, “Glechoma longitube extract, preparation method for same, and use thereof in sugar reduction, weight loss, and lipid reduction” (SHANGHAI INSTITUTE OF MATERIA MEDICA CHINESE ACADEMY OF …, priority 2014, dated 2021).

Assay type in all cases: biochemical
For one test, the target named is T1, hDGAT1 (Homo sapiens, UniProt O75907).
T1 construct: made in house; host or cells: insect cells
T1 sequence (O75907 1-488): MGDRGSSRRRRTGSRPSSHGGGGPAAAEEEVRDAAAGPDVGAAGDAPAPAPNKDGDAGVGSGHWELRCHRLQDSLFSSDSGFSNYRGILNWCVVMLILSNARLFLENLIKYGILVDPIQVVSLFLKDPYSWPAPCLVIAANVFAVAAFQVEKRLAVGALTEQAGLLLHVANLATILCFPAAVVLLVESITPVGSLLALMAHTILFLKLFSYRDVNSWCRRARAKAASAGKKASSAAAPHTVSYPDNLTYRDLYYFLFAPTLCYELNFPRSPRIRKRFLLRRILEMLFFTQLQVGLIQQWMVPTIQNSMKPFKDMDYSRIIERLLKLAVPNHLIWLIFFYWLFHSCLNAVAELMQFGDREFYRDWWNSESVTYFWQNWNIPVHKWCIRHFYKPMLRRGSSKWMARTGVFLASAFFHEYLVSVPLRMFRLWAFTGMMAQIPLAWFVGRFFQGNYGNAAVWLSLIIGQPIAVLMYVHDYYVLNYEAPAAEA
Put plainly: inhibitory activity against hDGAT1 (CPM fluorescence). As to the method:
Experimental method: (1) the effect of the extract of Glechoma longituba (Nakai) Kupr., LQC-H-1, on serum triglyceride level was evaluated in acute hypertriglyceridemic mouse model; 6-week old male C57BL/KsJ mice (Shanghai Slac Laboratory Animal Company), 8 for each group, weight of 20±2 g, were fed according to SPF grade operation procedure and fasted overnight for 16 hours prior to experiment. Compounds of different concentrations were intragastric administrated to each administration group of mice, respectively. Equal volume of water was given to control group and blank group of mice. 30 mins later, 2 g/kg olive oil was intragastric administrated to administration group and control group of mice, while equal volume of water was given to blank group of mice. 2 hours later, blood was collected from orbital vein of each group of mice for the separation of serum, and concentration of triglyceride in the serum was measured; (2) inhibitory activity of the individual compounds separated from the extract of Glechoma longituba (Nakai) Kupr., LQC-H-1, against diacylglycerol acyltransferase (DGAT): human derived DGAT1 obtained by expression and purification with insect cells were pre-incubated together with the compounds, substrate diacylglycerol was added to initiate the reaction in the presence of coenzyme A, fluorescence signal generated by the combination of produced sulfydryl and CPM was measured, and the inhibitory activity of the compound against DGAT was calculated according to the following formula: Inhibition rate %=(OD blank−OD compound)/(OD blank−OD negative control)*100%
(§1) OD compound, OD blank, and OD negative control represented the fluorescence values from a compound well, a blank well, and a negative control well free of DGAT1 enzyme, and the concentrations of the compounds when the enzyme activity inhibition rate (%) reached 50% were set as IC50 value; (3) inhibitory activity of the individual compounds separated from the extract of Glechoma longituba (Nakai) Kupr., LQC-H-1, against pancrelipase: substrate p-Nitrophenyl acetate (Sigma, USA) was formulated to 1.35 mM with phosphate buffer (25 mM, pH 6.8); porcine pancrelipase (Sigma) was formulated to 10 mg/ml with phosphate buffer; brominated eneyne compounds were formulated to solutions of different concentrations with phosphate buffer. Then, 50 μl of 1.35 mM p-Nitrophenyl acetate (Sigma, USA) solution and 10 μl of test compounds of different concentrations were sequentially added into a 96-well plate and pre-incubated at 37° C. for 5 mins. Finally, 50 μl of 10 mg/ml pancrelipase (EC 3.1.1.3, Sigma, USA) was added and mixed. The reaction proceeded at 37° C. for further 20 mins Absorbance of each well was measured at 492 nm. The inhibition rates (%) of the test samples against pancrelipase were calculated based on the absorbance at 492 nm. The concentrations of the compounds when then enzyme activity inhibition rate (%) reached 50% was set as IC50 value. The inhibition rate (%) could be calculated according to the following formula: Inhibition rate (%)=[(A−B)−(C−D)]/(A−B)×100

The next test deals with T2, porcine pancrelipase (Sus scrofa, UniProt P00591).
T2 construct: purchased Sigma
T2 sequence (P00591 1-450): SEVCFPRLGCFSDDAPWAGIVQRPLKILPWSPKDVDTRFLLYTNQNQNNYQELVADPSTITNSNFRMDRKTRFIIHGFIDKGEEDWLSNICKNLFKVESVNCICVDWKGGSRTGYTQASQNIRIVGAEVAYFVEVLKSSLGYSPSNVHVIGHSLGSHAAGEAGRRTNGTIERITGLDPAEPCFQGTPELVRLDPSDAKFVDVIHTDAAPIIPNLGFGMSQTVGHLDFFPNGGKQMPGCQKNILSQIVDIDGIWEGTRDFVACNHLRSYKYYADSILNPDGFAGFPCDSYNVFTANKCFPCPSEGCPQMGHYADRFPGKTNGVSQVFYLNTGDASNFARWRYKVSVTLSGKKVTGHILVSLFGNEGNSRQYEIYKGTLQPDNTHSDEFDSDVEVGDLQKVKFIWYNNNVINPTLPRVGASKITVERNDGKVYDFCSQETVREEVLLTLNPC
Put plainly: inhibitory activity against pancrelipase (p-Nitrophenyl acetate substrate). Particulars: 10 μM.
Text: as §1
In the above formula, A, B, C, and D represented the absorbance of a blank well after the reaction, the absorbance of a blank well prior to the reaction, the absorbance of a sample well after the reaction, and the absorbance of a sample well prior to the reaction.

Another test has as its target T3, glucose oxidase (GOX) (Homo sapiens, UniProt Q9UJM8).
T3 sequence (Q9UJM8 1-370): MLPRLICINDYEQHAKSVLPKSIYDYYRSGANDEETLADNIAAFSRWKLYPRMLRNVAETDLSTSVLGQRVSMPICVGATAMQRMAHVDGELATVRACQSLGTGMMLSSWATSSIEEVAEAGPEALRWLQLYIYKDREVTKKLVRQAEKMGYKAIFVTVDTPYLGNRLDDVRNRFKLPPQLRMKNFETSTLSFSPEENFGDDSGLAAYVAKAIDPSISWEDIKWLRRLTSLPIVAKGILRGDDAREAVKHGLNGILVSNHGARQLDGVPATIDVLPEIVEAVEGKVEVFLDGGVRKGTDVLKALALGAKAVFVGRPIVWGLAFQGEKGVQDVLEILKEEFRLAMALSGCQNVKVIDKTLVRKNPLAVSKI
The test can be described thus: inhibitory activity against glucose oxidase (GOX), enzyme coupling method with glycolic acid substrate. On the set-up: Vmax: unit not given here. As to the method: Mechanism of experiment: enzyme coupling method utilizes peroxidase (POD) and substrates thereof to react with generated H2O2 to produce colored products so as to determine the catalytic reaction rate of glucose oxidase. POD catalyzes H2O2 to react with phenol and 4-amino antipyrine to produce brown-red quinone substances.
Experimental method: reagents were added according to the table below; the reaction was immediately initiated upon the final addition of substrate glycolic acid; the kinetic course of the reaction was detected by microplate reader; the enzyme activity was represented by Vmax, maximum reaction velocity.
The measurement results were fitted by Graphpad Prism 5.0 to calculate IC50 values.

On to `O=C(Nc1ccccc1)Nc1ccc(-c2ccc(C(=O)[C@@H]3CCC[C@H]3C(=O)O)cc2)cc1` [A 922500, reference compound], for which the “Inhibition rate (%) (10 μM) against hDGAT1” value on hDGAT1 (10 μM) came to 83.36%. The “Inhibition rate (%) (50 μM) against hDGAT1” value on hDGAT1 (50 μM) came out at 97.51%.

Consider `CCCCCCCCCCC[C@@H](C[C@@H]1OC(=O)[C@H]1CCCCCC)OC(=O)[C@H](CC(C)C)NC=O` [Olistat, reference compound], for which, on porcine pancrelipase, the “Inhibition rate % (10 μM) against pancrelipase” value is recorded as 83.96%.

For the molecule `O=c1c(O)c(-c2ccc(O)c(O)c2)oc2cc(O)cc(O)c12` [Quercetin, reference compound], the Vmax was 34.68 ± 0.06 at glucose oxidase (GOX) (0.1 μM); 34.66 ± 0.20 on glucose oxidase (GOX) (0.3 μM); 33.85 ± 0.55 on glucose oxidase (GOX) (1 μM); 30.21 ± 0.12 at glucose oxidase (GOX) (3 μM); 26.55 ± 0.15 at glucose oxidase (GOX) (10 μM); 16.54 ± 0.12 at glucose oxidase (GOX) (30 μM). Moreover, the Vmax on glucose oxidase (GOX) (100 μM) is listed as −1.40 ± 8.87. The inhibition (in general, the relative decrease from the control value, in per cent) at 0.1 µM at glucose oxidase (GOX) (0.1 μM, read-out: Inhibition rate) turned out to be 2.82 ± 0.16%. Further, at glucose oxidase (GOX) (0.3 μM, read-out: Inhibition rate), the inhibition at 0.3 µM amounted to 2.87 ± 0.57%. Besides, the inhibition at 1 µM at glucose oxidase (GOX) (1 μM, read-out: Inhibition rate) was determined as 5.12 ± 1.53%. Also, the inhibition at 3 µM at glucose oxidase (GOX) (3 μM, read-out: Inhibition rate) was found to be 15.3 ± 0.32%. Also, the inhibition at 10 µM on glucose oxidase (GOX) (10 μM, read-out: Inhibition rate) is 25.6 ± 0.41%. Also, the inhibition at 30 µM on glucose oxidase (GOX) (30 μM, read-out: Inhibition rate) stood at 53.66 ± 0.34%. In addition, the inhibition at 100 µM at glucose oxidase (GOX) (100 μM, read-out: Inhibition rate) was found to be 104 ± 24.9%. In addition, the IC50 – broadly, the concentration at which inhibition is half-maximal – against glucose oxidase (GOX) (fitted by Graphpad Prism 5.0) turned out to be 21 µM.
